Assay results reported in US20080108706A1, “Chemical resection of pancreas” (priority 1999, published 2008).
“Also recorded” adds a separate entry of the source.

Experiments:
[1] = Non-tumor-bearing toxicity controls, same regimens; format: in vivo; details: group 3, NTB; IV QD 3, 4, 6-9, 14, 17, 18; total dosage 240 mg/kg
[2] = test system: acinar-derived cell line AR42J; assay: Growth of AR42J cells, IC50 assays; format: cell-based
Method: (OH)2 DEHSPM was also tested in the acinar-derived cell line AR42J.

[3] = test system: human pancreatic cell carcinoma line PANC-1; assay: IC50 assays in PANC-1 cells; format: cell-based
Method: (OH)2DEHSPM was tested in a series of IC50 assays in the human pancreatic cell carcinoma line PANC-1 (doubling time 36 hr.).

[4] = test system: pancreatic native polyamine pools; assay: Tissue drug and native polyamine levels (pancreas, liver) in treated dogs; format: in vivo, beagles
Text: The two dogs (#490 and 494) were fed a prescription canned and dry dog food and were supplemented with Viokase, a pancreatic enzyme preparation, by mixing three tablets with food or by oral administration immediately before each feeding. The dogs were maintained on this regimen for approximately three weeks. During this time, their weight and blood chemistries were closely monitored. The Viokase supplementation was then stopped and the same parameters were again evaluated. One week after the Viokase administration had ceased, the animals were euthanized and tissues were taken for histology and for the determination of tissue polyamine levels.
(§1) As the pancreatic insufficiency side-effect that was observed after the administration of the (R,R)—(HO)2DEHSPM to the beagles may have been related to the (R,R)-chirality of the molecule, the (S,S)-enantiomer was synthesized and was compared in a head-to-head fashion with the (R,R)-enantiomer. To perform this experiment, five male beagles approximately 6-8 months of age were obtained from Harlan Sprague Dawley. There were provided with food and water ad libitum and were allowed to acclimate to their new surroundings for two weeks. The animals were weighed prior to starting drug administration and were weighed once per week during the drug dosing period. A CBC and chemistry panel and a Holter monitor were performed once per week. In addition to the usual tests, additional pancreatic function-specific tests were also performed. These additional evaluations included a fecal trypsin test, examination of the feces for fecal fat and serum trypsin-like immunoreactivity determinations. It was hoped that these signs of pancreatic insufficiency would only appear in the animals given the (R,R)-enantiomer and would not be observed in the dogs that were given the (S,S)-molecule. The pancreatic insufficiency may not become evident until approximately 7-8 weeks post-drug. At the conclusion of the experiment, all of the animals were sacrificed and the histology and tissue polyamine levels were determined.
• 1. Dogs #468 and 500 were given (R,R)—(HO)2DEHSPM subcutaneously twice daily for 13 days. • 2. They were fed Purina Dog Chow ad libitum and given free access to water. • 3. Polyamine levels in the pancreas were also analyzed at several time points post-drug. • 4. At the start of the experiment, dog #468 weighed 14.4 kg and dog #500 weighed 12.8 kg. The latter animal's weight never exceeded 13.2 kg. At the end of the drug dosing period, dog #468 weighed 13.0 kg, a loss of 1.4 kg; dog #500 weighed 13.2 kg, a gain of 0.4 kg. • 5. […] The pancreatic native polyamine pools (most especially SPD) were markedly diminished compared to untreated control tissue: [SPM]control=3,985 μm v. [SPM10-days post-treatment=2,548 μm (64% of control) [SPD]control=2,820 μm v [SPD]10-days post-treatment=721 μm (25.6% of control) • 6. Dog #468 was bright, alert and responsive until day thirteen of drug administration. […] The dog was fed boiled chicken and rice, as well as Nutrical (a caloric supplement) and cat food and was slowly weaned back to regular dog food. Frank and/or occult blood was found in the dog's stool until about 17-days post-drug. • 7. Dog #500 was bright, alert and responsive throughout the experiment. […] However, stool consistency had normalized by one week post-drug. • 8. […] The inability to digest fats was confirmed when this test was repeated and the fatty meal was supplemented with Viokase (a pancreatic enzyme supplement). […] (2.15 mg/kg every 12 hours) for 13 days • Route: subcutaneously • 1. Dogs #440 and 476 were given (S,S)— (HO)2DEHSPM subcutaneously twice daily for 13 days. • […]. They were fed Purina Dog Chow ad libitum and given free access to water. • 3. At the start of the experiment, dog #440 weighed 11.8 kg.
Two animals were also treated with DEHSPM at a dose equimolar to the (HO)2DEHSPM dosage and sacrificed at 1- and 75-days after the final treatment. […]

exocrine pancreas = assay: Beagle study Part B: comparison of (R,R)- v. (S,S)-(HO)2DEHSPM; format: in vivo, beagles
Text: as §1
Five male beagles approximately 6-8 months of age were obtained from Harlan Sprague Dawley. They were provided with food and water ad libitum and were allowed to acclimate to their new surroundings for two weeks. Once two sets of baseline data were obtained, the animals were randomly divided into three groups: two of the dogs (#468 and 500) received the (R,R)—(HO)2DEHSPM; two of the animals (#440 and 476) were given (S,S)—(HO)2DEHSPM; and one dog (#452) served as an untreated (saline only) control. The dogs were given the (R,R)—or (S,S)—(HO)2DEHSPM at a dose of 4.3 mg/kg/day subcutaneously in divided doses, 2.15 mg/kg BID.
The animals were weighed weekly during the acclimation period, the drug dosing period and throughout the post-drug observational period. A CBC, chemistry panel and pancreatic function tests (trypsin-like immunoreactivity, fecal trypsin, fecal fat, etc.) were performed once per week. Additional tests, e.g., glucose tolerance and fat absorption, were performed as necessary. The dogs were Holter monitored twice during the acclimation period and then weekly during drug dosing.

[5] = test system: native polyamine levels in AR42J cells; assay: Polyamine pool analysis in AR42J cells; format: cell-based; details: 5 μm analogue
Method: In addition, the effect of (OH)2DEHSPM on the native polyamine levels in this cell line was evaluated.

[6] = 4.3 mg/kg/day sc for 13 days, post-drug
[7] = approximately five weeks post-drug, 4.3 mg/kg/day sc for 13 days
[8] = dog #468, 4.3 mg/kg/day sc for 13 days
[9] = dog #500, 4.3 mg/kg/day sc for 13 days

SMILES: CCNCC[C@@H](O)CNCCCCNC[C@H](O)CCNCC.Cl.Cl.Cl.Cl [(R,R)-(HO)2DEHSPM, N^1,N^14-Diethyl-3(R) 12(R)-dihydroxyhomospermine tetrahydrochloride]
- Percent Body Wt. Loss [1]: 30%
- IC50 ([2]; treatment period 4 days (= 1.33 doublings)): 90000 nM
- IC50 ([2]; treatment period 6 days (= 2 doublings)): 1200 nM
- IC50 ([2]; treatment period 12 days (= 4 doublings)): 90 nM
- IC50 ([3]; time point 96 hr.): > 100000 nM
- IC50 ([3]; time point 144 hr.): 500 nM
- IC50 ([3]; time point 240 hr.): 120 nM
- liver concentration of drug (parent+metabolite) ([4]; 10-days post-drug): 500 μm
- pancreatic concentration of drug (parent+metabolite) ([4]; 10-days post-drug): exceeded 1,000 μm
- [SPD] in pancreas ([4]; 10-days post-treatment): 721 μm
- [SPD] in pancreas, % of control ([4]; 10-days post-treatment): 25.6 % of control
- [SPM] in pancreas ([4]; 10-days post-treatment): 2,548 μm
- [SPM] in pancreas, % of control ([4]; 10-days post-treatment): 64 % of control
- [SPD] in pancreas ([4]; 52-days post-treatment): 156 μm
- [SPD] in pancreas, % of control ([4]; 52-days post-treatment): 5.5 % of control
- [SPM] in pancreas ([4]; 52-days post-treatment): 860 μm
- [SPM] in pancreas, % of control ([4]; 52-days post-treatment): 21.6 % of control
- native polyamine levels in pancreas ([4]; 75-, 78-, 88- and 92-days post-treatment): stabilized, but at a much lower level than the control pancreas
- drug remaining in pancreas ([4]; 75-, 88- and 92-day post-treatment samples): almost completely washed out
- total drug concentration (parent+metabolite) in pancreas ([4]; at necropsy (52-days post-treatment) vs 10-days post-treatment): remained virtually unchanged
- histopathology of pancreas at necropsy (exocrine pancreas; 4.3 mg/kg/day sc for 13 days, 52- to 64-days post-drug): moderate to severe atrophy of the exocrine pancreases
- alopecia (exocrine pancreas; [6]): also noted
- diagnosis from pancreatic function tests (exocrine pancreas; [6]): confirmed a diagnosis of exocrine pancreatic insufficiency
- glucose tolerance test (endocrine pancreas) (exocrine pancreas; [6]): “normal” response
- post-feeding serum samples after a fatty meal (exocrine pancreas; [6]): clear, indicating an inability to digest fats
- clinical course (exocrine pancreas; 4.3 mg/kg/day sc for 13 days, until euthanasia 52- to 64-days post-drug): continued to deteriorate
- histology of pancreatic tissue samples (exocrine pancreas; 10-days post-drug): no histological abnormalities
- TLI (exocrine pancreas; [7]): began to decrease
- fecal trypsin test results (exocrine pancreas; [7]): abnormal
- body weight (exocrine pancreas; approximately five weeks post-drug, 4.3 mg/kg/day sc for 13 days, both dogs of group): began losing weight very rapidly
- frank and/or occult blood in stool, found until (exocrine pancreas; [8]): about 17 days post-drug
- loss of body weight at end of drug dosing period (exocrine pancreas; [8]): 1.4 kg
- clinical signs (exocrine pancreas; dog #468, day thirteen of drug administration, 4.3 mg/kg/day sc, 4.3 mg/kg/day): bloody diarrhea and anorexia; also recorded: developed bloody diarrhea and stopped eating
- blood glucose level in glucose tolerance test (exocrine pancreas; dog #468, returned to normal during the 3.5 hours): exceeded 160 mg/dl
- clinical signs (exocrine pancreas; [9]): developed bloody diarrhea one-day post-drug
- gain of body weight at end of drug dosing period (exocrine pancreas; [9]): 0.4 kg
- pancreas at necropsy, gross appearance (exocrine pancreas; dogs #468 and 500, 52- and 58-days post-drug): greatly atrophied (about one-fourth the control weight)
- Analogue level [5]: 4748 pmol/million cells
- PUT, native polyamine level as % polyamine pools relative to untreated controls [5]: 0%
- SPD, native polyamine level as % polyamine pools relative to untreated controls [5]: 21%
- SPM, native polyamine level as % polyamine pools relative to untreated controls [5]: 82%
